# Measurements: patent US20240074990A1 (priority 2022, published 2024)
# Values joined by “and” are separate entries in the source; they are usually repeats but may differ in a detail not shown here. Equal values may be shown once. “Also recorded” adds a separate entry of the source. Read-outs that look alike come from different tables or passages of the source.
# Legend:
# SARS-CoV 3CL protease = SARS-CoV 3CL protease (Severe acute respiratory syndrome coronavirus, UniProt P0C6X7); assay: biochemical; conditions: for IC50: FRET, three parallel tests; for inhibitory activity on SARS-CoV 3CL proteases (in words): statement in words
# SARS-CoV-2 3CL protease = SARS-CoV-2 3CL protease (Severe acute respiratory syndrome coronavirus 2, UniProt P0DTD1); assay: In-vitro enzyme activity inhibition test on SARS-CoV-2 3CL protease (fluorescence resonance energy transfer method); format: biochemical; conditions: for inhibitory activity on SARS-CoV-2 3CL proteases (in words): statement in words
# [1] = 1 μM compound, parallel tests 1, 2, 3, 1 µM
# [2] = 5 μM compound, parallel tests 1, 2, 3, 5 µM
# [3] = 10 μM compound, parallel tests 1, 2, 3, 10 µM
# [4] = 20 μM compound, parallel tests 1, 2, 3, 20 µM
# [5] = 30 μM compound, parallel tests 1, 2, 3, 30 µM
# [6] = 50 μM compound, parallel tests 1, 2, 3, 50 µM
# [7] = 100 μM compound, parallel tests 1, 2, 3, 100 µM
# [8] = read-out: inhibition percentage, 1 μM compound, parallel tests 1, 2, 3
# [9] = read-out: inhibition percentage, 5 μM compound, parallel tests 1, 2, 3
# [10] = read-out: inhibition percentage, 10 μM compound, parallel tests 1, 2, 3
# [11] = read-out: inhibition percentage, 20 μM compound, parallel tests 1, 2, 3
# [12] = read-out: inhibition percentage, 30 μM compound, parallel tests 1, 2, 3
# [13] = read-out: inhibition percentage, 50 μM compound, parallel tests 1, 2, 3
# [14] = read-out: inhibition percentage, 100 μM compound, parallel tests 1, 2, 3
# [15] = IC50, SARS-CoV-2 3CL protease, FRET, three parallel tests
# [16] = 0.1 μM compound, parallel tests 1, 2, 3, 0.1 µM
# [17] = 0.5 μM compound, parallel tests 1, 2, 3, 0.5 µM
SMILES,inhibition percentage (SARS-CoV 3CL protease; [1]),inhibition percentage (SARS-CoV 3CL protease; [2]),inhibition percentage (SARS-CoV 3CL protease; [3]),inhibition percentage (SARS-CoV 3CL protease; [4]),inhibition percentage (SARS-CoV 3CL protease; [5]),inhibition percentage (SARS-CoV 3CL protease; [6]),inhibition percentage (SARS-CoV 3CL protease; [7]),"IC50 (SARS-CoV 3CL protease; IC50, SARS-CoV 3CL protease)",inhibitory activity on SARS-CoV 3CL proteases (in words) (SARS-CoV 3CL protease),inhibition percentage (SARS-CoV-2 3CL protease; [1]),inhibition percentage (SARS-CoV-2 3CL protease; [2]),inhibition percentage (SARS-CoV-2 3CL protease; [3]),inhibition percentage (SARS-CoV-2 3CL protease; [4]),inhibition percentage (SARS-CoV-2 3CL protease; [5]),inhibition percentage (SARS-CoV-2 3CL protease; [6]),inhibition percentage (SARS-CoV-2 3CL protease; [7]),IC50 (SARS-CoV-2 3CL protease; [15]),inhibitory activity on SARS-CoV-2 3CL proteases (in words) (SARS-CoV-2 3CL protease),further results
"Cc1cc2c(C(C)C)c(O)c(O)c(C=O)c2c(O)c1-c1c(C)cc2c(C(C)C)c(O)c(O)c(C=O)c2c1O [Gossypol, gossypol]",18.54 and 31.50,35.68 and 44.78,51.33 and 64.31,64.56 and 77.58,75.44 and 86.42,84.12 and 93.41,90.09 and 98.44,5.43 ± 0.734 µM,all have inhibitory activity; also recorded: excellent inhibitory activity,16.13 and 28.41,33.24 and 41.67,49.17 and 61.32,61.34 and 74.52,72.15 and 83.12,81.17 and 90.16,87.84 and 95.27,6.91 ± 0.839 µM,all have inhibitory activity; also recorded: excellent inhibitory activity,inhibition at 1 µM (SARS-CoV 3CL protease; [8]): 25.6%; inhibition at 5 µM (SARS-CoV 3CL protease; [9]): 40.4%; inhibition at 10 µM (SARS-CoV 3CL protease; [10]): 61.2%; inhibition at 20 µM (SARS-CoV 3CL protease; [11]): 75%; inhibition at 30 µM (SARS-CoV 3CL protease; [12]): 85.1%; inhibition at 50 µM (SARS-CoV 3CL protease; [13]): 92.1%; inhibition at 100 µM (SARS-CoV 3CL protease; [14]): 96.3%; inhibition at 1 µM (SARS-CoV-2 3CL protease; [8]): 22.9%; inhibition at 5 µM (SARS-CoV-2 3CL protease; [9]): 36.2%; inhibition at 10 µM (SARS-CoV-2 3CL protease; [10]): 57.4%; inhibition at 20 µM (SARS-CoV-2 3CL protease; [11]): 71.2%; inhibition at 30 µM (SARS-CoV-2 3CL protease; [12]): 83.7%; inhibition at 50 µM (SARS-CoV-2 3CL protease; [13]): 88.4%; inhibition at 100 µM (SARS-CoV-2 3CL protease; [14]): 93.2%
"CC(=O)O.Cc1cc2c(C(C)C)c(O)c(O)c(C=O)c2c(O)c1-c1c(C)cc2c(C(C)C)c(O)c(O)c(C=O)c2c1O [Acetate gossypol, acetate gossypol]",26.61 and 19.97 and 32.84,41.15 and 36.26 and 45.91,62.48 and 52.56 and 65.81,75.14 and 65.81 and 78.97,86.61 and 76.15 and 87.62,93.52 and 85.63 and 94.62,97.81 and 91.32 and 98.71,–,all have inhibitory activity; also recorded: excellent inhibitory activity,24.71 and 17.94 and 30.17,37.81 and 34.61 and 43.51,59.14 and 50.87 and 63.21,72.87 and 63.41 and 76.32,85.31 and 73.94 and 84.81,90.17 and 82.76 and 91.83,95.41 and 89.67 and 97.16,–,all have inhibitory activity; also recorded: excellent inhibitory activity,"IC50 (SARS-CoV 3CL protease; SARS-CoV 3CL protease, read-out: IC50): 5.16 ± 0.712 µM; IC50 (SARS-CoV-2 3CL protease; SARS-CoV-2 3CL protease, FRET, three parallel tests, read-out: IC50): 6.09 ± 0.784 µM"
"Cc1cc2c(C(C)C)c(O)c(O)c(C=O)c2c(O)c1-c1c(C)cc2c(C(C)C)c(O)c(O)c(C=O)c2c1O (single isomer, unassigned) [(−)- gossypol, (−)-gossypol]",43.78 and 40.92 and 50.01,64.32 and 58.9 and 67.22,77.32 and 72.54 and 73.76,86.43 and 78.13 and 85.43,91.83 and 87.54 and 90.32,98.42 and 92.10 and 97.54,99.74 and 98.12 and 99.53,1.79 µM and < 10 µM,all have inhibitory activity; also recorded: excellent inhibitory activity,31.43 and 32.87 and 34.65,52.19 and 48.98 and 56.91,71.90 and 65.43 and 69.78,82.54 and 75.44 and 83.47,90.45 and 83.21 and 91.45,96.88 and 90.68 and 95.87,99.23 and 96.73 and 98.44,< 10 µM,all have inhibitory activity; also recorded: excellent inhibitory activity,inhibition percentage (SARS-CoV 3CL protease; [16]): 13.11 and 10.83 and 15.87; inhibition percentage (SARS-CoV 3CL protease; [17]): 24.54 and 21.88 and 30.26; inhibition percentage (SARS-CoV-2 3CL protease; [16]): 12.83 and 10.83 and 14.77; inhibition percentage (SARS-CoV-2 3CL protease; [17]): 20.99 and 19.88 and 22.88; IC50 (SARS-CoV-2 3CL protease; IC50): 2.97 ± 0.473 µM
"Cc1cc2c(C(C)C)c(O)c(O)c(C=O)c2c(O)c1-c1c(C)cc2c(C(C)C)c(O)c(O)c(C=O)c2c1O (single isomer, unassigned) [(+)- gossypol, (+)-gossypol]",3.96 and 4.54 and 5.87,11.58 and 9.88 and 13.43,19.12 and 16.53 and 20.66,22.9 and 26.42 and 30.76,28.14 and 30.43 and 38.33,45.56 and 48.42 and 51.33,72.33 and 62.28 and 74.43,51.6 ± 1.71 µM,all have inhibitory activity,2.45 and 3.18 and 3.87,5.69 and 7.88 and 9.54,9.43 and 11.87 and 14.87,18.73 and 20.90 and 22.44,25.21 and 28.43 and 29.13,36.55 and 40.32 and 38.72,58.34 and 61.83 and 55.88,75.2 ± 1.88 µM,all have inhibitory activity,–
